The values that follow come from patent US20260265177A1, “BICYCLIC COMPOUNDS AS INACTIVATORS OF OAT AND GABA-AT” (Northwestern University, priority 2023, published 2026).

In general, kinact/KI refers to the second-order rate constant of inactivation.

Type in all cases: biochemical
Assay [1] addresses T1, hOAT (Homo sapiens, UniProt P04181).
T1 sequence (P04181 36-439 limits assumed): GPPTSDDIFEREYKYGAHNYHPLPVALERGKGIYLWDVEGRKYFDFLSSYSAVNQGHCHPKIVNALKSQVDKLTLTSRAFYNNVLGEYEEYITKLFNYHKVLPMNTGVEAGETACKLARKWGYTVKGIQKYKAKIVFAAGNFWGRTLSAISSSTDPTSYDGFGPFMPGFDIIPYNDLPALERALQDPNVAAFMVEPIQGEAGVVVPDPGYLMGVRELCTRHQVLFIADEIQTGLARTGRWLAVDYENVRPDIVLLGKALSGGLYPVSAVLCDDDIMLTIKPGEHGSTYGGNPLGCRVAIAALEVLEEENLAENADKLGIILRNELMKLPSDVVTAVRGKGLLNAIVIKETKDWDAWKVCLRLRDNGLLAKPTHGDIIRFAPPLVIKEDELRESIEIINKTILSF
The experiment in a line: Turnover number and partition ratio by titrating hOAT with varying equivalents of inactivator. The method, then: The turnover number and partition ratio of 6 were determined by titrating a known amount of hOAT with varying equivalents of inactivator (FIG. 12). The linear relationship of the remaining enzymatic activity was extrapolated to yield the number of equivalents of 6 required to inactivate the enzyme completely. From this we determined the turnover number of 6 to be 8.5 equivalent and the partition ratio to be 7.5. Based on our understanding of the mechanism, we believe that the turnover number may indicate that the second deprotonation is slow, which would allow the ketimine time to hydrolyze in a higher percentage than if the second deprotonation occurred rapidly.

A further assay concerns GABA-AT. Nature of the assay: Time-dependent inhibition of GABA-AT. The note with it: conclusion statement. The source says: Time-dependent inhibition of both GABA-AT and OAT were explored with racemic 6 (FIGS. 4 and 5). […] Racemic Vince lactam was used for the aforementioned biological assays.
Assay [2] has as its target T1, hOAT. Nature of the assay: Dialysis of hOAT inactivated by compound. The note with it: hOAT dialyzed at 5° C. for 72 hours. The method, then:
Samples of hOAT that had been inactivated by varying equivalents of 6 were dialyzed at 5° C. for 72 hours. At 4-, 12-, 24-, 48-, and 72-hour time points, aliquots were taken and the activity of the hOAT was measured.

For assay [3], the target named is T1, hOAT. Nature of the assay: Time-dependent inactivation of hOAT. The settings on record: enantiopure compound.

Take `N[C@@H]1CC2C(F)(F)[C@@]2(C(=O)O)C1` (stereo partly drawn) [compound 6, (1S,3R)-3-amino-6,6-difluorobicyclo[3.1.0]hexane-1-carboxylic acid]: on hOAT [1], the partition ratio is 7.5. Also, the turnover number at hOAT [1] (extrapolated from linear relationship of remaining enzymatic activity) is recorded as 8.5 equivalent. Besides, the “activity in GABA-AT” value in the assay on GABA-AT is given as “modest activity”. In addition, on hOAT [2], the “enzymatic activity recovered after dialysis” value is reported as “No enzymatic activity was recovered”. For the same molecule, at hOAT [3], the kinact/KI was 2.6 M⁻¹ s⁻¹.
